Measurements: patent publication US9573966B2, “Anti-cancer activity of novel bicyclic heterocycles” (Katholieke Universiteit Leuven, K.U.Leuven R&D, priority 2010, dated 2017)

What was measured:
HSB-2 cells = test: Inhibition of HSB-2 leukemic cell line proliferation (WST-1); format: cell-based, human; conditions: Homo sapiens, HSB2, 48 h, cytotoxicity on HSB-2 cells, two days incubation, WST-1 read-out
Method: (§1) HSB2 cell line, a human acute lymphoblastic leukemia (ATCC; CCL-120.1) cell line, was grown in RPMI-1640 medium (Lonza, Belgium) supplemented with 10% fetal calf serum (Hyclone, US) and antibiotics. Exponential growing phase cells were seed in flat bottom 96-well microplates (TTP, Switzerland) at 50000 cells per well in 220 μl of medium with compounds (in different concentrations) and incubated for two days at 37° C., 5% CO2. After incubation, 100 μl of supernatant were removed and 10 μl of WST-1 (Roche, Switzerland) were added. After 2 hour incubation at 37° C., 5% CO2, optical densities were measured at 450 nm. Proliferation is calculated with respect of control points (no compound and treatment with Triton X100 to have maximum and minimum proliferation data). The IC50 was determined from a graph with at least four points, each derived from the mean of at least 2 experiments. […] The results are shown in Table 1 for a number of compounds.

HL-60 cells = test: Inhibition of HL-60 leukemic cell line proliferation (WST-1); format: cell-based, human; conditions: Homo sapiens, 48 h; cytotoxicity on HL-60 cells, two days incubation, WST-1 read-out
Method: as §1, with “HL-60 cell” for “HSB2 cell”, “human promyelocytic” for “human acute lymphoblastic”, “(ATCC; CCL-240)” for “(ATCC; CCL-120.1)”, “Table 2” for “Table 1”

| Compound | IC50 (HSB-2 cells) [µM] | IC50 (HL-60 cells) [µM] |
| --- | --- | --- |
| Cc1cccc(OCC(=O)N2CCN(c3nc(N)nc4sc(-c5ccco5)nc34)CC2)c1 [Example 210, 1-(4-(5-amino-2-(furan-2-yl)thiazolo[5,4-d]pyrimidin-7-yl)piperazin-1-yl)-2-(m-tolyloxy)ethanone] | 0.48 | 0.39 |
| Cc1cccc(OCC(=O)N2CCN(c3nc(N)nc4sc(-c5ccc(F)cc5)nc34)CC2)c1 [Example 211, 1-(4-(5-amino-2-(4-fluorophenyl)thiazolo[5,4-d]pyrimidin-7-yl)piperazin-1-yl)-2-(m-tolyloxy)ethanone] | 0.47 | 0.69 |
| Cc1cc(Cl)ccc1OCC(=O)N1CCN(c2nc(N)nc3sc(-c4ccc(F)cc4)nc23)CC1 [Example 213, 1-(4-(5-amino-2-(4-fluorophenyl)thiazolo[5,4-d]pyrimidin-7-yl)piperazin-1-yl)-2-(4-chloro-2-methylphenoxy)ethanone] | 5.25 | 6.72 |
| Nc1nc(N2CCN(C(=O)COc3cccc(Cl)c3)CC2)c2nc(-c3ccc(F)cc3)sc2n1 [Example 214, 1-(4-(5-amino-2-(4-fluorophenyl)thiazolo[5,4-d]pyrimidin-7-yl)piperazin-1-yl)-2-(3-chlorophenoxy)ethanone] | 0.73 | 6.02 |
| N#Cc1ccc(NC(=O)N2CCN(c3nc(N)nc4sc(-c5ccc(F)cc5)nc34)CC2)cc1 [Example 216, 4-(5-amino-2-(4-fluorophenyl)thiazolo[5,4-d]pyrimidin-7-yl)-N-(4-cyanophenyl)piperazine-1-carboxamide] | 4.9 | 6.41 |
| Nc1nc(N2CCN(C(=O)Nc3ccc(Br)cc3)CC2)c2nc(-c3ccc(F)cc3)sc2n1 [Example 218, 4-(5-amino-2-(4-fluorophenyl)thiazolo[5,4-d]pyrimidin-7-yl)-N-(4-bromophenyl)piperazine-1-carboxamide] | 7.05 | 7.35 |
| COc1ccccc1NC(=O)N1CCN(c2nc(N)nc3sc(-c4ccc(F)cc4)nc23)CC1 [Example 219, 4-(5-amino-2-(4-fluorophenyl)thiazolo[5,4-d]pyrimidin-7-yl)-N-(2-methoxyphenyl)piperazine-1-carboxamide] | 5.83 | 6.19 |
| N#Cc1ccc(NC(=O)N2CCN(c3nc(N)nc4sc(Cc5ccc(F)cc5)nc34)CC2)cc1 [Example 232, 4-(5-amino-2-(4-fluorobenzyl)thiazolo[5,4-d]pyrimidin-7-yl)-N-(4-cyanophenyl)piperazine-1-carboxamide] | 6.89 | 9.89 |
| Nc1nc(N2CCN(C(=O)CCc3ccc(F)cc3)CC2)c2nc(-c3ccc(F)cc3)sc2n1 [Example 236, 1-(4-(5-amino-2-(4-fluorophenyl)thiazolo[5,4-d]pyrimidin-7-yl)piperazin-1-yl)-3-(4-fluorophenyl)propan-1-one] | 5.57 | 8.2 |
| COc1ccc(OCC(=O)N2CCN(c3nc(N)nc4sc(-c5ccc(Cl)cc5)nc34)CC2)cc1 [Example 270, 1-(4-(5-amino-2-(4-chlorophenyl)thiazolo[5,4-d]pyrimidin-7-yl)piperazin-1-yl)-2-(4-methoxyphenoxy)ethanone] | 0.18 | 0.45 |
| Nc1nc(N2CCN(C(=O)COc3ccc(OC(F)(F)F)cc3)CC2)c2nc(-c3cccnc3)sc2n1 [Example 273, 1-(4-(5-amino-2-(pyridin-3-yl)thiazolo[5,4-d]pyrimidin-7-yl)piperazin-1-yl)-2-(4-trifluoromethoxyphenoxy)ethanone] | 0.81 | 4.84 |
| Nc1nc(N2CCN(C(=O)Nc3ccc(Cl)cc3)CC2)c2nc(-c3cccnc3)sc2n1 [Example 277, 4-(5-amino-2-(pyridin-3-yl)thiazolo[5,4-d]pyrimidin-7-yl)-N-(4-chlorophenyl)piperazine-1-carboxamide] | 0.74 | 0.83 |
| COc1ccc(CNC(=O)N2CCN(c3nc(N)nc4sc(-c5cccnc5)nc34)CC2)cc1 [Example 278, 4-(5-amino-2-(pyridin-3-yl)thiazolo[5,4-d]pyrimidin-7-yl)-N-(4-methoxybenzyl)piperazine-1-carboxamide] | 0.75 | 0.68 |
